Experimental data: the NIST ThermoML archive (doi:10.1021/je060002k)
± gives the expanded uncertainty stated by the source. One block for each compound: values may come before it.

Details: Liquid

vapor or sublimation pressure (351.45 K): 101.33 ± 3 kPa
SMILES: CCO [ethanol]

SMILES: Cc1ccccc1 [toluene]
vapor or sublimation pressure (383.75 K): 101.33 ± 3 kPa

vapor or sublimation pressure (341.85 K): 101.33 ± 3 kPa
SMILES: CCCCCC [hexane]

vapor or sublimation pressure (372.35 K): 101.33 ± 3 kPa
SMILES: CC(C)CC(C)(C)C [2,2,4-trimethylpentane]
